According to patent US9113629B2, “4-amino-6-(4-substituted-phenyl)-picolinates and 6-amino-2-(4-substituted-phenyl)-pyrimidine-4-carboxylates and their use as herbicides” (DOW AGROSCIENCES LLC, priority 2013, dated 2015):
Read-outs that look alike come from different tables or passages of the source.

Experiments:
[1] = test system: Key Broadleaf Weed and Crop Species; test: Post-emergent Test II herbicidal activity (Table 5); format: in vivo; settings: post-emergence, 336 h, 14 days after application; for pest or weed control at 70 g/ha: application rate 70 g ai/ha; for pest or weed control at 140 g/ha: application rate 140 g ai/ha
Outline: (§1)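 Scoring: visual, 0–100% injury at 14 d versus untreated. Treatment: overhead track spray, 187 L/ha, onto plants at the first–second true leaf stage. Growth: greenhouse, ~15 h light, 23–29 °C day, 22–28 °C night.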

[2] = test system: Key Grass and Sedge Weeds as well as Grass Crops; test: Post-emergent Test II herbicidal activity (Table 6); format: in vivo; settings: post-emergence, 336 h; for pest or weed control at 70 g/ha: 70 g ai/ha; for pest or weed control at 140 g/ha: 140 g ai/ha
Outline: as §1

[3] = ABUTH: velvetleaf (Abutilon theophrasti), read-out: Visual Growth Reduction (%) 14 Days After Application, ABUTH
[4] = AMARE: redroot pigweed (Amaranthus retroflexus), read-out: Visual Growth Reduction (%) 14 Days After Application, AMARE
[5] = BRSNN: oilseed-rape, canola (Brassica napus), read-out: Visual Growth Reduction (%) 14 Days After Application, BRSNN
[6] = CHEAL: lambsquarters (Chenopodium album), read-out: Visual Growth Reduction (%) 14 Days After Application, CHEAL
[7] = EPHHL: wild poinsettia (Euphorbia heterophylla), read-out: Visual Growth Reduction (%) 14 Days After Application, EPHHL
[8] = HELAN: sunflower (Helianthus annuus), read-out: Visual Growth Reduction (%) 14 Days After Application, HELAN
[9] = VIOTR: wild pansy (Viola tricolor), read-out: Visual Growth Reduction (%) 14 Days After Application, VIOTR
[10] = CYPES: yellow nutsedge (Cyperus esculentus), read-out: Visual Growth Reduction (%) 14 Days After Application, CYPES
[11] = DIGSA: crabgrass (Digitaria sanguinalis), read-out: Visual Growth Reduction (%) 14 Days After Application, DIGSA
[12] = ECHCG: barnyardgrass (Echinochloa crus-galli), read-out: Visual Growth Reduction (%) 14 Days After Application, ECHCG
[13] = ORYSA: rice (Oryza sativa), crop, read-out: Visual Growth Reduction (%) 14 Days After Application, ORYSA
[14] = SETFA: giant foxtail (Setaria faberi), read-out: Visual Growth Reduction (%) 14 Days After Application, SETFA
[15] = SORVU: grain sorghum (Sorghum vulgare), read-out: Visual Growth Reduction (%) 14 Days After Application, SORVU
[16] = TRZSS (wheat, Triticum aestivum), crop, read-out: Visual Growth Reduction (%) 14 Days After Application, TRZSS
[17] = ZEAMX: maize, corn (Zea mays), crop, read-out: Visual Growth Reduction (%) 14 Days After Application, ZEAMX

| Compound | pest or weed control at 70 g/ha [1, 3] [%] | pest or weed control at 140 g/ha [1, 3] [%] | pest or weed control at 70 g/ha [1, 4] [%] | pest or weed control at 70 g/ha [1, 5] [%] | pest or weed control at 140 g/ha [1, 5] [%] | pest or weed control at 70 g/ha [1, 6] [%] | pest or weed control at 140 g/ha [1, 6] [%] | pest or weed control at 70 g/ha [1, 7] [%] | pest or weed control at 140 g/ha [1, 7] [%] | pest or weed control at 70 g/ha [1, 8] [%] | pest or weed control at 140 g/ha [1, 8] [%] | pest or weed control at 70 g/ha [1, 9] [%] | pest or weed control at 140 g/ha [1, 9] [%] | pest or weed control at 70 g/ha [2, 10] [%] | pest or weed control at 140 g/ha [2, 10] [%] | pest or weed control at 70 g/ha [2, 11] [%] | pest or weed control at 140 g/ha [2, 11] [%] | pest or weed control at 70 g/ha [2, 12] [%] | pest or weed control at 140 g/ha [2, 12] [%] | pest or weed control at 70 g/ha [2, 13] [%] | further results |
| --- | --- | --- | --- | --- | --- | --- | --- | --- | --- | --- | --- | --- | --- | --- | --- | --- | --- | --- | --- | --- | --- |
| COC(=O)c1nc(-c2ccc(C)c(F)c2F)c(F)c(N)c1Cl [Compound 211] | 95 to 100 | 95 to 100 | 95 to 100 | 60 to 74 | 85 to 94 | 95 to 100 | 95 to 100 | 95 to 100 | 95 to 100 | 95 to 100 | 95 to 100 | 0 to 29 | 0 to 29 | 45 to 59 | 60 to 74 | 0 to 29 | 0 to 29 | 45 to 59 | 85 to 94 | 0 to 29 | pest or weed control at 140 g/ha [1, 4]: 95 to 100%; pest or weed control at 140 g/ha [2, 13]: 0 to 29%; pest or weed control at 70 g/ha [2, 14]: 45 to 59%; pest or weed control at 140 g/ha [2, 14]: 60 to 74%; pest or weed control at 70 g/ha [2, 15]: 0 to 29%; pest or weed control at 140 g/ha [2, 15]: 30 to 44%; pest or weed control at 70 g/ha [2, 16]: 0 to 29%; pest or weed control at 140 g/ha [2, 16]: 0 to 29%; pest or weed control at 70 g/ha [2, 17]: 30 to 44%; pest or weed control at 140 g/ha [2, 17]: 45 to 59%; melting point: 167 to 168 °C |
| C#Cc1ccc(-c2nc(C(=O)O)c(Cl)c(N)c2F)cc1 [Compound 62] | 75 to 84 | 75 to 84 | 95 to 100 | 95 to 100 | 95 to 100 | 85 to 94 | 85 to 94 | 95 to 100 | 95 to 100 | 85 to 94 | 95 to 100 | 0 to 29 | 0 to 29 | 95 to 100 | 95 to 100 | 85 to 94 | 85 to 94 | 95 to 100 | 95 to 100 | 0 to 29 | pest or weed control at 140 g/ha [2, 13]: 0 to 29%; pest or weed control at 70 g/ha [2, 14]: 95 to 100%; pest or weed control at 140 g/ha [2, 14]: 95 to 100%; pest or weed control at 70 g/ha [2, 15]: 75 to 84%; pest or weed control at 140 g/ha [2, 15]: 75 to 84%; pest or weed control at 70 g/ha [2, 16]: 45 to 59%; pest or weed control at 140 g/ha [2, 16]: 45 to 59%; pest or weed control at 70 g/ha [2, 17]: 75 to 84%; pest or weed control at 140 g/ha [2, 17]: 85 to 94%; melting point: 142 to 147 °C (dec.) |
| COC(=O)c1nc(-c2ccc(C(F)(F)F)c(F)c2F)nc(N)c1OC [Compound 64] | 95 to 100 | 95 to 100 | 45 to 59 | 75 to 84 | 85 to 94 | 95 to 100 | 95 to 100 | 95 to 100 | 95 to 100 | 95 to 100 | 95 to 100 | 60 to 74 | 60 to 74 | 45 to 59 | 60 to 74 | 60 to 74 | 85 to 94 | 45 to 59 | 85 to 94 | 0 to 29 | pest or weed control at 140 g/ha [1, 4]: 75 to 84%; pest or weed control at 140 g/ha [2, 13]: 0 to 29%; pest or weed control at 70 g/ha [2, 14]: 30 to 44%; pest or weed control at 140 g/ha [2, 14]: 60 to 74%; pest or weed control at 70 g/ha [2, 15]: 30 to 44%; pest or weed control at 140 g/ha [2, 15]: 45 to 59%; pest or weed control at 70 g/ha [2, 16]: 30 to 44%; pest or weed control at 140 g/ha [2, 16]: 45 to 59%; pest or weed control at 70 g/ha [2, 17]: 95 to 100%; pest or weed control at 140 g/ha [2, 17]: 95 to 100%; melting point: 140 to 141 °C |
| Nc1cc(-c2ccc(C(F)(F)F)c(F)c2F)nc(C(=O)O)c1Cl [Compound 172, 4-amino-3-chloro-6-(2,3-difluoro-4-(trifluoromethyl)phenyl)picolinic acid] | 95 to 100 | 95 to 100 | 95 to 100 | 75 to 84 | 75 to 84 | 85 to 94 | 85 to 94 | 95 to 100 | 95 to 100 | 95 to 100 | 95 to 100 | 45 to 59 | 60 to 74 | 95 to 100 | 95 to 100 | 75 to 84 | 75 to 84 | 95 to 100 | 95 to 100 | 0 to 29 | pest or weed control at 140 g/ha [1, 4]: 95 to 100%; pest or weed control at 140 g/ha [2, 13]: 0 to 29%; pest or weed control at 70 g/ha [2, 14]: 95 to 100%; pest or weed control at 140 g/ha [2, 14]: 95 to 100%; pest or weed control at 70 g/ha [2, 15]: 75 to 84%; pest or weed control at 140 g/ha [2, 15]: 75 to 84%; pest or weed control at 70 g/ha [2, 16]: 45 to 59%; pest or weed control at 140 g/ha [2, 16]: 60 to 74%; pest or weed control at 70 g/ha [2, 17]: 95 to 100%; pest or weed control at 140 g/ha [2, 17]: 95 to 100%; melting point: 161 °C |
